From PMC11249646, “Small-Molecule Disruptors of the Interaction between Calcium- and Integrin-Binding Protein 1 and Integrin αIIbβ3 as Novel Antiplatelet Agents” (ACS Pharmacology & Translational Science, 2024)
Read-outs that look alike come from different tables or passages of the source. Where a SMILES comes first, the peptide text is derived from it. The star is where a group is joined. FITC = O=C1OC2(c3ccc(O)cc3Oc3cc(O)ccc32)c2ccc(NC(=S)*)cc21

Key:
Format in all cases: binding
[1] = target: T1, GST-CIB1 : F-scrambled peptide (Homo sapiens, UniProt Q99828); assay: FP scrambled-peptide counter screen, 384-well format; conditions: F-scrambled vs F-αIIb; 1.6 vs 0.2 μM
T1 construct: made in house; host or cells: BL-21 plus RIL cells (E. coli)
T1 sequence (Q99828 1-191): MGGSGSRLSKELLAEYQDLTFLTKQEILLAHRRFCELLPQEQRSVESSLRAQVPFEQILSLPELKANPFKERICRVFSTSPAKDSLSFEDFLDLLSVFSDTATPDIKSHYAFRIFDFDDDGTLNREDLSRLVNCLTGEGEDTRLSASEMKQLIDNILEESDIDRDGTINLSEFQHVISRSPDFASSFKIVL

[2] = target: T2, CIB1 and αIIb interaction (CIB1-GST : F-αIIb peptide) (Homo sapiens, UniProt Q99828); assay: FP assay, 1536-well qHTS format (primary and confirmatory screen)
T2 construct: made in house; host or cells: BL-21 plus RIL cells (E. coli)
T2 sequence (Q99828 1-191): T1 sequence (Q99828 1-191)

[3] = target: T1, GST-CIB1 : F-scrambled peptide; assay: FP scrambled-peptide counter screen, 1536-well format; conditions: for IC50: read-out: IC50 [μM] (counterscreen)
[4] = confirmatory screen, qHTS curve class, negative sign = inhibitory curve
[5] = confirmatory screen, read-out: IC50 [μM] (confirmatory screen)
[6] = qHTS FP screen hits, Table S2, negative = inhibition
[7] = qHTS FP screen hits, Table S2, one class per curve where COUNT > 1, negative sign = inhibitory curve
[8] = qHTS FP screen hits, Table S2, read-out: IC50
[9] = counterscreen, qHTS curve class, negative sign = inhibitory curve
[10] = Table S3, confirmatory screen, YES/NO call
[11] = Table S3, confirmatory screen, qHTS curve class, a negative sign marks inhibitory curves
[12] = Table S3, confirmatory screen, negative = inhibition
[13] = Table S3, confirmatory screen, read-out: IC50 [μM] (confirmatory screen)
[14] = Table S3, counterscreen, qHTS curve class, a negative sign marks inhibitory curves
[15] = Table S3, counterscreen, negative = inhibition
[16] = qHTS primary screen hits, Table S2, negative = inhibition
[17] = qHTS primary screen hits, Table S2, negative sign = inhibitory curve, several classes where COUNT > 1
[18] = qHTS primary screen hits, Table S2, read-out: IC50
[19] = Table S3, counterscreen, YES/NO call

Row | Compound | Efficacy (%) (confirmatory screen) ([2]; confirmatory screen) | Confirm? (confirmatory screen) ([2]; confirmatory screen, YES/NO) | Curve Class (confirmatory screen) [2, 4] | IC50 [2, 5] | Efficacy (%) [2, 6] | Curve Class [2, 7] | IC50 [2, 8] | Efficacy (%) (counterscreen) ([3]; counterscreen) | Curve Class (counterscreen) [3, 9] | IC50 ([3]; counterscreen) | Curve Class (confirmatory screen) [2, 11] | Efficacy (%) (confirmatory screen) [2, 12] | Curve Class (counterscreen) [3, 14] | Efficacy (%) (counterscreen) [3, 15] | Efficacy (%) [2, 16] | Curve Class [2, 17] | IC50 [2, 18] | further results
1 | CSCC[C@H](NC(=O)[C@@H](NC(=O)[C@H](CCCCN)NC(=O)[C@@H](NC(=O)[C@H](Cc1ccccc1)NC(=O)[C@H](CC(C)C)NC(=O)[C@H](CCCCN)NC(=O)[C@H](CCCNC(=N)N)NC(C)=O)C(C)C)C(C)C)C(=O)N[C@@H](Cc1ccccc1)C(=O)N[C@@H](Cc1c[nH]c2ccccc12)C(=O)N[C@@H](CCCNC(=N)N)C(=O)N[C@@H](CC(C)C)C(=O)N[C@@H](CC(N)=O)C(=O)NCC(=O)N[C@@H](C)C(=O)N[C@@H](CCCCNC(=S)Nc1ccc2c(c1)C(=O)OC21c2ccc(O)cc2Oc2cc(O)ccc21)C(=O)O [F-scrambled, reference compound] (Ac-RKLFVKVMFWRLNGAK(FITC)-OH; C-terminus assumed) | – | – | – | – | – | – | – | – | – | – | – | – | – | – | – | – | – | affinity weaker compared to the native peptide [1]: ~8 fold
2 | N#Cc1ccc(Nc2nc(-c3ccc(O)cc3O)cs2)cc1C(F)(F)F [NCGC00386816-01] | -72% | YES | -2.2 | 50.1 µM | -71% | -2.2 | 35.5 µM | -65% | -2.2 | 28.2 µM | – | – | – | – | – | – | – | –
3 | CCC(C)Cn1c(O)cc2nn(-c3nc4ccccc4s3)c(=O)c-2c1C.O=C(O)C(F)(F)F (centres unmarked) [NCGC00386995-01] | – | – | – | – | – | – | – | – | – | – | -1.4 | -40% | -1.2 | -51% | – | – | – | Confirm? (confirmatory screen) [2, 10]: YES; IC50 [2, 13]: 35.5 µM; IC50 ([3]; Table S3, counterscreen): 11.2 µM
4 | C=C1[C@@H](C)[C@H]2[C@H](Cc3ccccc3)NC(=O)[C@]23OC(=O)/C=C/C(=O)CCC[C@@H](C)C/C=C/[C@H]3[C@@H]1O [NCGC00388356-01] | -94% | YES | -1.1 | 10 µM | -73% | -1.2 | 20 µM | -57% | -1.2 | 5.6 µM | – | – | – | – | – | – | – | –
5 | O=C(N/N=C1\C(=O)N(CCc2ccccc2)c2ccccc21)c1cccnc1 [NCGC00420788-01] | – | – | – | – | – | – | – | – | – | – | -2.2 | -58% | -2.2 | -65% | -28% | -1.4 | 22.4 µM | Confirm? (confirmatory screen) [2, 10]: YES; IC50 [2, 13]: 39.8 µM; IC50 ([3]; Table S3, counterscreen): 44.7 µM
6 | Nc1nc2c(s1)C(c1ccccc1)CC(=O)N2 (centres unmarked) [NCGC00422009-03] | – | – | – | – | – | – | – | – | – | – | 4 | -35% | -2.4 | -45% | -83% | -2.2 | 79.4 µM | Confirm? (counterscreen) [3, 19]: YES; IC50 ([3]; Table S3, counterscreen): 39.8 µM
7 | Cc1ccc2c(c1)/C(=C\C(=O)c1cccs1)C(=O)N2.O=C(O)C(F)(F)F [NCGC00479180-01] | – | – | – | – | – | – | – | – | – | – | -1.2 | -57% | -2.4 | -64% | -36% | -1.4 | 15.8 µM | Confirm? (confirmatory screen) [2, 10]: YES; IC50 [2, 13]: 11.2 µM; IC50 ([3]; Table S3, counterscreen): 11.2 µM
8 | COc1cc2ccccc2cc1C(=O)N/C(S)=N/c1cc(C(=O)O)ccc1C.O=C(O)C(F)(F)F [NCGC00479324-01] | – | – | – | – | -25% | – | 12.6 µM | – | – | – | – | – | – | – | – | – | – | CONFIRMATORY SCREEN Efficacy (%) ([2]; confirmatory screen): -38%; CONFIRMATORY SCREEN Curve Class ([2]; confirmatory screen, qHTS curve class): 4; COUNTERSCREEN Efficacy (%) ([3]; counterscreen): 12%; COUNTERSCREEN Curve Class ([3]; counterscreen, qHTS curve class): 4
9 | COc1ccccc1C(=O)/C=C1/C(=O)Nc2ccc(C)cc21.O=C(O)C(F)(F)F [NCGC00481357-01] | -59% | YES | -1.4 | 5.6 µM | – | – | – | -51% | -1.4 | 6.3 µM | – | – | – | – | -43% | -1.2 | 14.1 µM | –
10 | Nc1nc2c(s1)C(c1ccccc1C(F)(F)F)CC(=O)N2.O=C(O)C(F)(F)F (centres unmarked) [NCGC00488247-02] | – | – | – | – | -83% | -2.2 | 44.7 µM | – | – | – | 4 | -12% | -2.4 | -39% | – | – | – | Confirm? (counterscreen) [3, 19]: YES; IC50 ([3]; Table S3, counterscreen): 28.2 µM
11 | O=C(O)C(F)(F)F.O=C1CC(c2ccccc2Cl)c2sc(N3CCOCC3)nc2N1 (centres unmarked) [NCGC00488256-02] | – | – | – | – | – | – | – | – | – | – | -2.4 | -49% | -2.2 | -77% | -72% | -2.2 | 79.4 µM | Confirm? (confirmatory screen) [2, 10]: YES; IC50 [2, 13]: 50.1 µM; IC50 ([3]; Table S3, counterscreen): 31.6 µM
12 | CNc1nc2c(s1)C(c1c(F)cccc1Cl)CC(=O)N2.O=C(O)C(F)(F)F (centres unmarked) [NCGC00488265-02] | – | – | – | – | – | – | – | – | – | – | 4 | -12% | 4 | 0% | -65% | -2.2 | 56.2 µM | –

Second part, led by results:

Row | Efficacy (%) (confirmatory screen) ([2]; confirmatory screen) | Confirm? (confirmatory screen) ([2]; confirmatory screen, YES/NO) | Curve Class (confirmatory screen) [2, 4] | IC50 [2, 5] | Efficacy (%) [2, 6] | Curve Class [2, 7] | IC50 [2, 8] | Efficacy (%) (counterscreen) ([3]; counterscreen) | Curve Class (counterscreen) [3, 9] | IC50 ([3]; counterscreen) | Compound | Curve Class (confirmatory screen) [2, 11] | Efficacy (%) (confirmatory screen) [2, 12] | Curve Class (counterscreen) [3, 14] | Efficacy (%) (counterscreen) [3, 15] | Efficacy (%) [2, 16] | Curve Class [2, 17] | IC50 [2, 18] | further results
13 | -28% | YES | -2.4 | 44.7 µM | -72% | -1.2 | 28.2 µM | 0% | 4 | – | O=c1nc(-c2ccccn2)sc2ccccc12 [NCGC00387147-01] | – | – | – | – | – | – | – | Confirm? (counterscreen) ([3]; counterscreen, YES/NO): YES
14 | – | – | – | – | -79% | -2.2 | 79.4 µM | – | – | – | CC[C@@H](c1ccc(F)c(F)c1)n1c(C(=O)OC)c(-c2ccno2)[nH]c1=S [NCGC00387465-01] | 4 | -22% | 4 | 0% | – | – | – | –
15 | -53% | YES | -1.2 | 2.8 µM | -48% | -1.2 | 3.5 µM | -36% | -1.2 | 4 µM | CNc1ccc([N+](=O)[O-])c(Nc2ccc3[nH]ncc3c2)n1 [NCGC00387499-01] | – | – | – | – | – | – | – | –
16 | -53% | YES | -2.4 | 44.7 µM | – | – | – | -48% | -2.2 | 31.6 µM | O=C1NC(c2ccc(N3CCOCC3)cc2)(c2ccsc2)CC(O)=C1Sc1ccccc1Cl (centres unmarked) [NCGC00388532-05] | – | – | – | – | -27% | -1.4 | 0.9 µM | –
17 | -42% | YES | -2.2 | 39.8 µM | -36% | -1.2 | 28.2 µM | -32% | -2.2 | 50.1 µM | Oc1ccc2c(-c3c(-c4ccccn4)nn4c3CCC4)ccnc2c1 [NCGC00408881-01] | – | – | – | – | – | – | – | –
18 | -47% | YES | -2.2 | 20 µM | – | – | – | -34% | -1.4 | 6.3 µM | O=C1C[C@@](c2ccc(N3CCOCC3)cc2)(c2ccsc2)NC(=O)C1Sc1ccccc1Cl (some centres unmarked) [NCGC00420796-01] | – | – | – | – | – | – | – | –
19 | -39% | YES | -2.4 | 89.1 µM | -54% | -2.2 | 79.4 µM | -16% | 4 | – | Nc1nc2c(s1)C(c1ccc(F)cc1F)CC(=O)N2 (centres unmarked) [NCGC00422010-03] | – | – | – | – | – | – | – | Confirm? (counterscreen) ([3]; counterscreen, YES/NO): YES
20 | -30% | YES | -2.4 | 35.5 µM | -25% | – | 25.1 µM | -22% | 4 | – | CC(C)C(=O)OCc1ccc(-c2nn(Cc3ccccc3)c3ccccc23)o1 [NCGC00479272-01] | – | – | – | – | – | – | – | Confirm? (counterscreen) ([3]; counterscreen, YES/NO): YES
21 | -39% | YES | -2.4 | 44.7 µM | -33% | -1.2 | 28.2 µM | -15% | 4 | – | O=C(O)c1cnn(-c2nc3cc(Cl)c(OC(F)(F)F)cc3[nH]2)c1 [NCGC00484069-01] | – | – | – | – | – | – | – | Confirm? (counterscreen) ([3]; counterscreen, YES/NO): YES
